# Marks after values point to notes of the source that are not given here.
# Legend:
# [1] = system: isolated guinea pig hearts; test: Reperfusion-induced ventricular fibrillation in isolated guinea pig hearts subjected to global ischemia
# Description: The isolated guinea pig hearts were ligated by global ischemia. Reperfusion was achieved by releasing the tension applyied to the ligature. Various concentrations of THP were then administered and the ventricular fibrillarion (VF) was recorded. Table 1 Effects of THP on reperfusion-induced ventricular fibrillation in isolated guinea pig hearts subjected to global ischemia
# Similarly, 10µM THP can be effective in inhibiting the cardiac arrhythmia induced in the isolated guinea pig heart subjected to global ischemia followed by reperfusion (Table 1). The structure of coronary arteries between rat and guinea pig are not alike, THP, however, can be effective in inhibiting the arrhythmia induced in the isolated heart subjected to ischemia-reperfusion in both animals.
# AV node conduction = test: His bundle electrogram of isolated heart, Langendorff perfusion, atrial pacing at 300 ms cycle length; design: species or system rats and guinea pigs; conditions: for atrial effective refractory period (AERP): before drug THP 60 ms, quinidine 40 ms; for ventricular effective refractory period (VERP): before drug THP 160 ms, quinidine 180 ms; for AV node effective refractory period (AVNERP): before drug THP 170 ms, quinidine 130 ms; for wenckbach cycle length (WCL): before drug THP 200 ms, quinidine 150 ms
# Description: The investigation conforms to the Guide for the Care and Use of Laboratory Animals published by the US National Institutes of Health (NIH publication No. 85-23, revised 1996). Adult rats and guinea pigs were killed after hepariniation and anesthetization with urethane (1.25 g/kg i.p.). After isolating the heart, the aorta was perfused with 10µM quinidine and THP, respectively, by Langendorff perfusion. A pair of bipolar electrodes connected with silver wire were placed on the tip of the Triangle of Koch to record the His bundle electrogram. In addition, another pair of bipolar electrodes connected with silver wire were placed on the surface of the right ventricle to record T wave. […] The QT interval, conduction time through the sinoatrial (SA interval), the atrioventricular node (AH interval) and His-purkinje system (HV interval) were recorded, respectively, using electrocardiograph. Similarly, the recovery curve of His-purkinje system (i.e. the relationship of H2V2 and V1H2), atrial and ventricular refractory period and AV node refractory period were also recorded in the same manner. 1 and 2.
# The SA, AH, HV intervals and T wave are prolonged in the quinidine-treated heart (FIG. 1). […] In addition, 3, 10 and 30µM THP can prolong the atrial effective refractory period (AERP) from 60 ms to 90, 100 and 120 ms, respectively; the ventricular effective refractory period (VERP) from 160 ms to 160, 170 and 190 ms, respectively; and the AV node effective refractory period (AVNERP) from 170 ms to 170, 200 and 240 ms, respectively. When compared with THP in the same manner, 3,10 and 30µM quinidine can prolong the AERP from 40 ms to 60, 80 and 130 ms; the VERP from 180 ms to 170, 180 and 190 ms; and the AVNERP from 130 ms to 150, 200 and 245 ms, respectively. Further, 3, 10 and 30µM THP can change the wenckbach cycle length (WCL) from 200 ms to 210, 230 and 280 ms, respectively; whereas 3, 10 and 30µM quinidine can change the WCL from 150 ms to 170, 210 and 300 ms, respectively. Both THP and quinidine prolong AERP, VERP and AVNERP, however, only quinidine inhibits conduction in AV node (prolonged AH interval). In contrast, even when the THP concentration raised to 10µM, the conduction in AV node is not inhibited.
# [2] = system: transient outward potassium current (Ito); test: Inhibition of transient outward potassium current; conditions: rats
# Description: Moreover, 3-10µM THP prolongs the action potential duration in the atria or ventricles of both rats and guinea pigs (data not shown).
structure (smiles),measurement,setting,value
"COc1cc2c(cc1OC)-c1c(O)c(OC)cc3c1C(C2)N(C)CC3 (single isomer, unassigned; (+)) [THP, (+)-Thaliporphine]",%VF,[1]; 3 µM,25* %
same,VF (number of hearts),"[1]; 3 µM, N 8",2
same,%VF,[1]; 10 µM,0* %
same,VF (number of hearts),"[1]; 10 µM, N 6",0
same,atrial effective refractory period (AERP),AV node conduction; 3µM,90 ms
same,ventricular effective refractory period (VERP),AV node conduction; 3µM,160 ms
same,AV node effective refractory period (AVNERP),AV node conduction; 3µM,170 ms
same,wenckbach cycle length (WCL),AV node conduction; 3µM,210 ms
same,AH interval (conduction in AV node),"AV node conduction; 10µM, isolated perfused heart",not inhibited
same,HV interval,"AV node conduction; 10µM, isolated perfused heart",prolonged slightly
same,SA interval,"AV node conduction; 10µM, isolated perfused heart",remains unaffected
same,atrial effective refractory period (AERP),AV node conduction; 10µM,100 ms
same,ventricular effective refractory period (VERP),AV node conduction; 10µM,170 ms
same,AV node effective refractory period (AVNERP),AV node conduction; 10µM,200 ms
same,wenckbach cycle length (WCL),AV node conduction; 10µM,230 ms
same,atrial effective refractory period (AERP),AV node conduction; 30µM,120 ms
same,ventricular effective refractory period (VERP),AV node conduction; 30µM,190 ms
same,AV node effective refractory period (AVNERP),AV node conduction; 30µM,240 ms
same,wenckbach cycle length (WCL),AV node conduction; 30µM,280 ms
same,transient outward potassium current (Ito),[2],markedly inhibit

# Source: patent EP1311486B1, “USES OF THALIPORPHINE OR ITS DERIVATIVES IN TREATMENT OF CARDIAC DISEASES AND PREPARATION OF SAME” (Lotus Pharmaceutical Co., Ltd., priority 2000, dated 2002)
